According to patent US6635459B1, “Nucleotide sequences encoding pinoresinol/lariciresinol reductase proteins and their methods of use” (Washington State University Research Foundation, priority 1996, dated 2003):

Columns and labels:
HIV = conditions: cited from earlier work
E-coniferyl alcohol [1] = assay: E-coniferyl alcohol coupling assay (oxidant with/without dirigent protein); assay type: biochemical, Forsythia intermedia; conditions: 6 hour assay
Experimental: E-coniferyl alcohol coupling assay. E-[9-^3H]Coniferyl alcohol (4 μmol ml^−1, 29.3 kBq) was incubated with a 120-kD laccase (previously purified from Forsythia intermedia stem tissue) over a […], in the presence and absence of the dirigent protein, as follows. Each assay consisted of E-[9-^3H]coniferyl alcohol (4 μmol ml^−1, 29.3 kBq, 7.3 MBq mole liter^−1; or 2 μmol ml^−1, 14.7 kBq with fraction III), the 78-kD dirigent protein, an oxidase or oxidant, or both [final concentrations: 770 pmol ml^−1 dirigent protein; 10.7 pmol protein ml^−1 Forsythia laccase; 12 μg protein ml^−1 fraction III; 0.5 μmol ml^−1 FMN; 0.5 μmol ml^−1 FAD; 1 and 10 μmol ml^−1 ammonium peroxydisulfate] in buffer (0.1 M MES-HEPES-sodium acetate, pH 5.0) to a total volume of 250 μl. The enzymatic reaction was initiated by addition of E-[9-^3H]coniferyl alcohol. Controls were performed in the presence of buffer alone.
After one hour incubation at 30° C. while shaking, the assay mixture was extracted with ethyl acetate (EtOAc, 500 μl) containing (±)-pinoresinols (7.5 μg), (±)-dehydrodiconiferyl alcohols (3.5 μg) and erythro/threo (±)-guaiacylglycerol 8-O-4′-coniferyl alcohol ethers (7.5 μg) as radiochemical carriers and ferulic acid (15.0 μg) as an internal standard. After centrifugation (13,800 g, 5 min), the EtOAc soluble components were removed and the extraction procedure repeated with EtOAc (500 μl). The EtOAc soluble components from each assay were combined, the solutions evaporated to dryness in vacuo, redissolved in methanol-water solution (1:1; 100 μl) with an aliquot (50 μl) thereof subjected to reversed-phase column chromatography (Waters, Nova-Pak C18, 150 mm by 3.8 mm). The elution conditions were as follows: acetonitrile/3% acetic acid in H2O (5:95) from 0 to 5 min, then linear gradients to ratios of 10:90 between 5 and 20 min, then to 20:80 between 20 and 45 min and finally to 50:50 between 45 and 60 min, at a flow rate of 8.8 ml min^−1 cm^−2.
Fractions corresponding to E-coniferyl alcohol, erythro/threo (±)-guaiacylglycerol 8-O-4′-coniferyl alcohol ethers, (±)-dehydrodiconiferyl alcohols and (±)-pinoresinols were individually collected, aliquots removed for liquid scintillation counting, and the remainder freeze-dried. Pinoresinol-containing fractions were redissolved in methanol (100 μl) and subjected to chiral column chromatography (Daicel, Chiralcel OD, 50 mm by 4.6 mm) with a solution of hexanes and ethanol (1:1) as the mobile phase (flow rate 3 ml min^−1 cm^−2), whereas dehydrodiconiferyl alcohol fractions were subjected to Chiralcel OF (250 mm by 4.6 mm) column chromatography eluted with a solution of hexanes and isopropanol (9:1) as the mobile phase (flow rate 2.4 ml min^−1 cm^−2), the radioactivity of the eluent being measured with a flow-through detector (Radiomatic, Model A120).
Ammonium peroxydisulfate readily undergoes homolytic cleavage (A. Usaitis, R. Makuska, Polymer 35:4896 (1994)) and is routinely used as an one-electron oxidant in acrylamide polymerization. Ammonium peroxydisulfate was first incubated with E-[9-^3H]coniferyl alcohol (4 μmol ml^−1, 29.3 kBq) for 6 hours using the E-coniferyl alcohol coupling assay procedure described above.

E-sinapyl alcohol = E-sinapyl alcohol coupling assay (oxidant with/without dirigent protein); assay type: biochemical, Forsythia intermedia; conditions: 6 hour assay
Experimental: Investigation of Substrate-Specific Stereoselectivity. The coupling stereoselectivity was substrate specific. Neither E-p-[9-^3H]coumaryl (4 μmol ml^−1, 44.5 kBq) or E-[8-^14C]sinapyl alcohols (4 μmol ml^−1, 8.3 kBq), which differ from E-coniferyl alcohol only by a methoxyl group substituent on the aromatic ring, yielded stereoselective products when incubated for 6 hours with FMN and ammonium peroxydisulfate respectively, in the presence and absence of the dirigent protein. Incubations were carried out as described above with the following modifications: E-p-[9-^3H]coumaryl (4 μmol ml^−1, 44.5 kBq) or E-[8-^14C]sinapyl alcohols (4 μmol ml^−1, 8.3 kBq) were used as substrates and, after 6 hour incubation at 30° C., the reaction mixture was extracted with EtOAc but without addition of radiochemical carriers.

E-coniferyl alcohol [2] = assay: Kinetic characterization of conversion of E-coniferyl alcohol to (+)-pinoresinol with dirigent protein and oxidase/oxidant; assay type: biochemical, Forsythia intermedia; conditions: (+)-pinoresinol formation from E-coniferyl alcohol, dirigent protein 770 pmol ml^−1 alone or with Fraction III 12 μg protein ml^−1, laccase 2.07 pmol ml^−1, FMN 0.5 μmol ml^−1; for Km: read-out: Formal Km
Experimental: Assays were carried out as described in Example 3 by incubating a series of E-[9-^3H]coniferyl alcohol concentrations (between 8.00 and 0.13 μmol ml^−1, 7.3 MBq mole literl) with dirigent protein (770 pmol ml^−1) alone and in presence of Forsythia laccase (2.1 pmol ml^−1), fraction III (12 μg protein ml^−1), or FMN (0.5 μmol ml^−1). Assays with dirigent protein, in presence or absence of FMN, were incubated at 30° C. for 1 hour, whereas assays with Forsythia laccase or fraction III in presence or absence of dirigent protein were incubated at 30° C. for 15 min. If free-radical capture by the dirigent protein is the operative mechanism, the Michaelis-Menten parameters obtained will only represent formal rather than true values, because the highest free-energy intermediate state during the conversion of E-coniferyl alcohol into (+)-pinoresinol is still unknown and the relation between the concentration of substrate and that of the corresponding intermediate free-radical in open solution has not been delineated.
Bearing these qualifications in mind, we estimated formal Km and Vmax values for the dirigent protein preparation.

[3] = substrate: COc1cc(C[C@H]2CO[C@H](c3ccc(O)c(OC)c3)[C@H]2CO)ccc1O; assay: Initial velocity studies, reductase 35 kDa isoform; assay type: biochemical, Forsythia intermedia; conditions: other: 35 kDa form of the enzyme, NADPH 80 μM, pH 7.4, 30° C.
Experimental: Kinetic Parameters. […] The initial velocity studies were carried out individually utilizing the two isoforms of the enzyme, and individually employing both (+)-pinoresinol and (+)-lariciresinol as substrates. Initial velocity studies were performed in triplicate experiments, using 50 mM Bis-Tris Propane buffer, pH 7.4 containing 5 mM dithiothreitol, pure enzyme (after MonoQ anion-exchange chromatography), ten different substrate concentrations (between 8.8 and 160 μM) at a constant NADPH concentration (80 μM). Incubations were carried out at 30° C. for 10 min (within the linear kinetic range). Kinetic parameters were determined from Lineweaver-Burk plots.

[4] = substrate: COc1cc(C[C@H]2CO[C@H](c3ccc(O)c(OC)c3)[C@H]2CO)ccc1O; assay: purified protein, by the assay type; conditions: other: 36 kDa form of the enzyme, NADPH 80 μM, pH 7.4, 30° C.
E-coniferyl alcohol [5] = assay: (+)-Pinoresinol-forming activity from E-[9-3H]coniferyl alcohol; assay type: biochemical, Forsythia intermedia
[6] = ammonium peroxydisulfate 1 μmol ml^−1, dirigent protein absent
[7] = ammonium peroxydisulfate 1 μmol ml^−1, dirigent protein present (770 pmol ml^−1)
[8] = ammonium peroxydisulfate 10 μmol ml^−1, dirigent protein absent
[9] = ammonium peroxydisulfate 10 μmol ml^−1, dirigent protein present (770 pmol ml^−1)
[10] = dirigent protein absent, FMN 0.5 μmol ml^−1 or ammonium peroxydisulfate 10 μmol ml^−1
[11] = dirigent protein present (770 pmol ml^−1), FMN 0.5 μmol ml^−1 or ammonium peroxydisulfate 10 μmol ml^−1
[12] = dirigent protein (770 pmol ml^−1) alone, no added oxidant

COc1cc(C[C@H]2C(=O)OC[C@@H]2Cc2ccc(OC)c(OC)c2)ccc1O [(−)-arctigenin]
effectiveness against HIV (reverse transcriptase inhibitory activities) (HIV): effective against HIV

N.N.O=S(=O)(O)OOS(=O)(=O)O [Ammonium peroxydisulfate]
(+)-Pinoresinol (E-coniferyl alcohol [1]; [6]): 0 nmol/mL
(±)-Dehydro-diconiferyl alcohols (E-coniferyl alcohol [1]; [6]): 35 ± 2 nmol/mL
(±)-Guaiacyl-glycerol 8-O-4′-coniferyl alcohol ethers (E-coniferyl alcohol [1]; [6]): 10 ± 1 nmol/mL
(±)-Pinoresinols (E-coniferyl alcohol [1]; [6]): 16 ± 0 nmol/mL
E-Coniferyl alcohol in dimer equivalents depleted (E-coniferyl alcohol [1]; [6]): 200 ± 4 nmol/mL
Total dimers (E-coniferyl alcohol [1]; [6]): 61 ± 3 nmol/mL
(+)-Pinoresinol (E-coniferyl alcohol [1]; [7]): 130 ± 10 nmol/mL
(±)-Dehydro-diconiferyl alcohols (E-coniferyl alcohol [1]; [7]): 13 ± 1 nmol/mL
(±)-Guaiacyl-glycerol 8-O-4′-coniferyl alcohol ethers (E-coniferyl alcohol [1]; [7]): 6 ± 0 nmol/mL
(±)-Pinoresinols (E-coniferyl alcohol [1]; [7]): 0 nmol/mL
E-Coniferyl alcohol in dimer equivalents depleted (E-coniferyl alcohol [1]; [7]): 250 ± 55 nmol/mL
Total dimers (E-coniferyl alcohol [1]; [7]): 149 ± 11 nmol/mL
(+)-Pinoresinol (E-coniferyl alcohol [1]; [8]): 0 nmol/mL
(±)-Dehydro-diconiferyl alcohols (E-coniferyl alcohol [1]; [8]): 250 ± 10 nmol/mL
(±)-Guaiacyl-glycerol 8-O-4′-coniferyl alcohol ethers (E-coniferyl alcohol [1]; [8]): 90 ± 4 nmol/mL
(±)-Pinoresinols (E-coniferyl alcohol [1]; [8]): 135 ± 4 nmol/mL
E-Coniferyl alcohol in dimer equivalents depleted (E-coniferyl alcohol [1]; [8]): 860 ± 30 nmol/mL
Total dimers (E-coniferyl alcohol [1]; [8]): 475 ± 17 nmol/mL
(+)-Pinoresinol (E-coniferyl alcohol [1]; [9]): 450 ± 10 nmol/mL
(±)-Dehydro-diconiferyl alcohols (E-coniferyl alcohol [1]; [9]): 90 ± 3 nmol/mL
(±)-Guaiacyl-glycerol 8-O-4′-coniferyl alcohol ethers (E-coniferyl alcohol [1]; [9]): 30 ± 1 nmol/mL
(±)-Pinoresinols (E-coniferyl alcohol [1]; [9]): 0 nmol/mL
E-Coniferyl alcohol in dimer equivalents depleted (E-coniferyl alcohol [1]; [9]): 1030 ± 25 nmol/mL
Total dimers (E-coniferyl alcohol [1]; [9]): 570 ± 14 nmol/mL
E-Sinapyl alcohol in dimer equivalents depleted (E-sinapyl alcohol; [10]): 1400 ± 120 nmol/mL
Racemic (±)-syringaresinols (E-sinapyl alcohol; [10]): 1020 ± 40 nmol/mL
E-Sinapyl alcohol in dimer equivalents depleted (E-sinapyl alcohol; [11]): 1520 ± 10 nmol/mL
Racemic (±)-syringaresinols (E-sinapyl alcohol; [11]): 1060 ± 30 nmol/mL

Cc1cc2nc3c(=O)[nH]c(=O)nc-3n(C[C@H](O)[C@H](O)[C@H](O)COP(=O)(O)O)c2cc1C [FMN, flavin mononucleotide]
Vmax (E-coniferyl alcohol [2]): 0.024 ± 0.001 mol s^−1 mol^−1 dirigent protein
Km (E-coniferyl alcohol [2]): 100 ± 10 µM
E-Sinapyl alcohol in dimer equivalents depleted (E-sinapyl alcohol; [10]): 570 ± 100 nmol/mL
Racemic (±)-syringaresinols (E-sinapyl alcohol; [10]): 290 ± 40 nmol/mL
E-Sinapyl alcohol in dimer equivalents depleted (E-sinapyl alcohol; [11]): 610 ± 110 nmol/mL
Racemic (±)-syringaresinols (E-sinapyl alcohol; [11]): 340 ± 40 nmol/mL

CC(Cc1ccc(O)c(O)c1)C(C)Cc1ccc(O)c(O)c1 (centres unmarked) [nordihydroguaiaretic acid]
effectiveness against HIV (reverse transcriptase inhibitory activities) (HIV): effective against HIV

B1: 35 kDa form of (+)-pinoresinol/(+)-lariciresinol reductase (Forsythia x intermedia) (protein)
chain: GKSKVLIIGGTGYLGRRLVKASLAQGHETYILHRPEIGVDIDKVEMLISFKMQGAHLVSGSFKDFNSLVEAVKLVDVVISAISGVHIRSHQILLQLKLVEAIKEAGNVKRFLPSEFGMDPAKFMDTAMEPGKVTLDEKMVVRKAIEKAGIPFTYVSANCFAGYFLGGLCQFGKILPSRDFVIIHGDGNKKAIYNNEDDIATYAIKTINDPRTLNKTIYISPPKNILSQREVVQTWEKLIGKELQKITLSKEDFLASVKELEYAQQVGLSHYHDVNYQGCLTSFEIGDEEEASKLYPEVKYTSVEEYLKRYV
notes: pure enzyme (after MonoQ anion-exchange chromatography); from tissue; host or cells: Forsythia intermedia stems
Km [3]: 121 ± 5.0 µM
Vmax [3]: 25.2±0.7 μmol h^−1 mg^−1 of protein

B2: 36 kDa form of (+)-pinoresinol/(+)-lariciresinol reductase (Forsythia x intermedia) (protein)
chain: GKSKVLIIGGTGYLGRRLVKASLAQGHETYILHRPEIGVDIDKVEMLISFKMQGAHLVSGSFKDFNSLVEAVKLVDVVISAISGVHIRSHQILLQLKLVEAIKEAGNVKRFLPSEFGMDPAKFMDTAMEPGKVTLDEKMVVRKAIEKAGIPFTYVSANCFAGYFLGGLCQFGKILPSRDFVIIHGDGNKKAIYNNEDDIATYAIKTINDPRTLNKTIYISPPKNILSQREVVQTWEKLIGKELQKITLSKEDFLASVKELEYAQQVGLSHYHDVNYQGCLTSFEIGDEEEASKLYPEVKYTSVEEYLKRYV
Km [4]: 123 ± 6.0 µM
Vmax [4]: 29.9±0.7 μmol h^−1 mg^−1 of protein

B3: Dirigent protein: 78-kD protein purified from Forsythia intermedia stems that guides stereoselective coupling of E-coniferyl alcohol radicals to (+)-pinoresinol (protein)
chain: MVSKTQIVALFLCFLTSTSSATYGRKPRPRRPCKELVFYFHDVLFKGNNYHNATSAIVGSPQWGNKTAMAVPFNYGDLVVFDDPITLDNNLHSPPVGRAQGMYFYDQKNTYNAWLGFSFLFNSTKYVGTLNFAGADPLLNKTRDISVIGGTGDFFMARGVATLMTDAFEGDVYFRLRVDINLYECW
(+)-Pinoresinol (E-coniferyl alcohol [1]; [12]): 55 ± 1 nmol/mL
(±)-Dehydro-diconiferyl alcohols (E-coniferyl alcohol [1]; [12]): 8 ± 1 nmol/mL
(±)-Guaiacyl-glycerol 8-O-4′-coniferyl alcohol ethers (E-coniferyl alcohol [1]; [12]): 5 ± 1 nmol/mL
(±)-Pinoresinols (E-coniferyl alcohol [1]; [12]): 0 nmol/mL
E-Coniferyl alcohol in dimer equivalents depleted (E-coniferyl alcohol [1]; [12]): 61 ± 20 nmol/mL
Total dimers (E-coniferyl alcohol [1]; [12]): 68 ± 3 nmol/mL
Vmax (E-coniferyl alcohol [2]): 0.02 ± 0.02 mol s^−1 mol^−1 dirigent protein
Vmax (E-coniferyl alcohol [2]; listed as dirigent protein): 0.02±0.02 mol s^−1 mol^−1 dirigent prote
Km (E-coniferyl alcohol [2]): 10000 ± 6000 µM
(+)-pinoresinol-forming activity (E-coniferyl alcohol [5]; E-[9-3H]coniferyl alcohol as substrate for one hour): < 5 % of total activity loaded onto the POROS SP-M column
(+)-pinoresinol formation (residual oxidizing capacity) (E-coniferyl alcohol [5]; protein by itself, over 10 hours): < 5%
E-Sinapyl alcohol in dimer equivalents depleted (E-sinapyl alcohol; [12]): 110 ± 10 nmol/mL
Racemic (±)-syringaresinols (E-sinapyl alcohol; [12]): 50 ± 10 nmol/mL
